Assay results published in US20230099344A1, “COMPOUNDS AND METHODS FOR THE TARGETED DEGRADATION OF IRAK-4” (Arvinas Operations, Inc., priority 2021, published 2023).

How the values were obtained:
Type in all cases: cell-based
IRAK-4 [1] = biological target: T1, IRAK-4 (Homo sapiens, UniProt Q9NWZ3); assay: IRAK-4 ELISA, PBMC degradation; parameters: endogenous in cells; host or cells: PBMC; settings: treated overnight
T1 sequence (Q9NWZ3 1-460): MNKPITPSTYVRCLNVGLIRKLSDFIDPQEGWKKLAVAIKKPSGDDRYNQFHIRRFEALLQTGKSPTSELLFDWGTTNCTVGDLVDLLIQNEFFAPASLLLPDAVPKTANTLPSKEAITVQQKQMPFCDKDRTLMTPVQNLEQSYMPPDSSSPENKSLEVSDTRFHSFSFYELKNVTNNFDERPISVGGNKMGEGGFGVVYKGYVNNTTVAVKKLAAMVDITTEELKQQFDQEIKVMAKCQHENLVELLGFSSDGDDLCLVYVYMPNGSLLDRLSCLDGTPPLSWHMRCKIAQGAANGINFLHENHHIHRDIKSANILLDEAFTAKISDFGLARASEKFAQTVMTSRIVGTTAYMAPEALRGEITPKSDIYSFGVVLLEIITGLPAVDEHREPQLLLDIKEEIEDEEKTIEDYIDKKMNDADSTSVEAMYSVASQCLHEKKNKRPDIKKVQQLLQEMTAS
How it was run: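 OCI-Ly10 cells (1×10^6/ml) or PBMC (2×10^6/ml) treated with compound on the day of seeding and incubated overnight. IRAK-4 protein remaining in cell lysates quantified by sandwich ELISA.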

IRAK-4 [2] = biological target: T1, IRAK-4; assay: IRAK-4 ELISA, OCI-Ly10 degradation; parameters: endogenous in cells; settings: treated overnight; for Dmax: OCI-Ly10, OCI-Ly10 cells; for DC50: OCI-Ly10 cells
Procedure: Reagents: Human IRAK-4 Matched Antibody Pair Kit (Abcam ab218182) and ELISA Accessory Pack (Abcam ab210905).
Cell Treatment and Lysis:
1. OCI-Ly10: 200,000 cells are seeded at 1×10^6/ml in 96-well U-bottom plates 200 ul per well, treated with compound the same day. Incubate overnight. 2. PBMC: 800,000 cells are seeded at 2×10^6/ml in 96-well U-bottom deep-well plates, 400 ul per well, treated with compound the same day. Incubate overnight.
Cell lysate is collected and analyzed by ELISA for IRAK-4 levels.

IL6 [3] = assay: IL-1β stimulated IL6 inhibition assay in PBMC; settings: human PBMCs, IL-1β stimulation, compound overnight, IL6 by MSD after 24 hrs; for Emax: read-out: IL1β stim IL6 inhibition Ymax; for IC50: read-out: IL1β stim IL6 inhibition IC50
Procedure: (§1) IL-1β, LPS, or R848 Stimulated IL6 Inhibition and IL-1β Stimulated IL8 Inhibition Assay
(§2) Human PBMC cells were seeded at 2.0×10^6 cells/mL, treated with compound overnight, and dosed with the EC50 concentration of each stimulant (either IL-1B. LPS, or R848) was determined for each donor. After 24 hrs, media was collected and analyzed by MSD for IL6 and/or IL8 levels.

IL8 = assay: IL-1β stimulated IL8 inhibition assay in PBMC; settings: human PBMCs, IL-1β stimulation, compound overnight, IL8 by MSD after 24 hrs
Procedure: as §1, §2

IL6 [4] = assay: R848 stimulated IL6 inhibition assay in PBMC; settings: PBMC, human PBMCs, R848 stimulation, compound overnight, IL6 by MSD after 24 hrs; for Dmax: Homo sapiens, 24 h, read-out: R848 stim IL6 inhibition Dmax; for IC50: read-out: R848 stim IL6 inhibition IC50
How it was run: (§3)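 Primary human PBMCs plated at 2.0×10^6 cells/mL are incubated with compound overnight. Stimulation follows using the donor's EC50 concentration of agonist. MSD detects secreted IL6/IL8 at 24 hrs.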

IL6 [5] = assay: LPS stimulated IL6 inhibition assay in PBMC; settings: Homo sapiens, PBMC, 24 h, human PBMCs, LPS stimulation, compound overnight, IL6 by MSD after 24 hrs; for Dmax: read-out: LPS Stim IL6 inhibition Dmax; for IC50: read-out: LPS stim IL6 inhibition IC50
How it was run: as §3

Row | SMILES | DC50 (IRAK-4 [1]) | Dmax (IRAK-4 [1]) | PBMC DC90 (IRAK-4 [1]) | Dmax (IRAK-4 [2]) | DC50 (IRAK-4 [2]) | also measured
1 | O=C1CCC(N2C(=O)c3ccc(N4CCC(F)(CN5CCC(n6cc7cc(NC(=O)c8cnn9cccnc89)c(OCC8CC8)cc7n6)CC5)CC4)cc3C2=O)C(=O)N1 (centres unmarked) [Example 166] | 0.005 to 0.01 µM | ≥ 90% | C (C represents a DC90 value ≥25.0 nM and <50 nM) | ≥ 90% | 0.01 to 0.05 µM | 
2 | O=C1CCC(N2C(=O)c3ccc(N4CCC(CN5CCC(N6Cc7cc(NC(=O)c8cnn9cccnc89)c(N8CCOCC8)cc7C6=O)CC5)CC4)cc3C2=O)C(=O)N1 (centres unmarked) [Example 31] | 0.001 to 0.005 µM | ≥ 90% | B (B represents a DC90 value ≥10.0 nM and <25.0 nM) | 80 to 90% | < 0.01 µM | Emax (IL6 [3]; PBMC): ≥ 90%; IC50 (IL6 [3]): ≥ 0.1 µM
3 | O=C1CCC(N2C(=O)c3ccc(N4CCN(CCN5CCC([C@H](F)CN6Cc7cc(NC(=O)c8cnn9cccnc89)c(N8CCOCC8)cc7C6=O)CC5)CC4)cc3C2=O)C(=O)N1 (some centres unmarked) [Example 93] | < 0.001 µM | ≥ 90% | A (A represents a DC90 value <10.0 nM) | ≥ 90% | 0.01 to 0.05 µM | 
4 | O=C1CCC(N2C(=O)c3ccc(N4CCC(CN5CC[C@H](N6Cc7cc(NC(=O)c8cnn9cccnc89)c(N8CCOCC8)cc7C6=O)[C@@H](F)C5)CC4)cc3C2=O)C(=O)N1 (some centres unmarked) [Example 94] | 0.001 to 0.005 µM | ≥ 90% | A (A represents a DC90 value <10.0 nM) | 70 to 80% | 0.01 to 0.05 µM | 
5 | CC(C)Oc1cc2c(cc1NC(=O)c1cnn3cccnc13)CN([C@H]1CCN(CC3CCN(c4ccc5c(c4)C(=O)N(C4CCC(=O)NC4=O)C5=O)CC3)C[C@@H]1F)C2=O (some centres unmarked) [Example 91] | 0.001 to 0.005 µM | ≥ 90% | B (B represents a DC90 value ≥10.0 nM and <25.0 nM) | ≥ 90% | 0.01 to 0.05 µM | 
6 | CC(C)Oc1cc2c(cc1NC(=O)c1cnn3cccnc13)CN(C1CCN(CC3(F)CCN(c4ccc5c(c4)C(=O)N(C4CCC(=O)NC4=O)C5=O)CC3)CC1)C2=O (centres unmarked) [Example 58] | 0.001 to 0.005 µM | ≥ 90% | B (B represents a DC90 value ≥10.0 nM and <25.0 nM) | ≥ 90% | 0.01 to 0.05 µM | 
7 | CC(C)(C1CCN(c2ccc3c(c2)C(=O)N(C2CCC(=O)NC2=O)C3=O)CC1)N1CCC(N2Cc3cc(NC(=O)c4cnn5cccnc45)c(OCC4CC4)cc3C2=O)CC1 (centres unmarked) [Example 87] | 0.005 to 0.01 µM | 80 to 90% | D (D represents a DC90 value ≥50 nM) | ≥ 90% | 0.05 to 0.1 µM | 
8 | COc1cc2nn(C3CCN(CC4CN(c5ccc(C(=O)NC6CCC(=O)NC6=O)c(F)c5)C4)CC3)cc2cc1NC(=O)c1cnn2cccnc12 (centres unmarked) [Example 294] |  |  |  | 80 to 90% | 0.01 to 0.05 µM | 
9 | O=C1CCC(N2C(=O)c3ccc(N4CC(CN5CCC(n6cc7cc(NC(=O)c8cnn9cccnc89)c(OCC8CC8)cc7n6)CC5)C4)cc3C2=O)C(=O)N1 (centres unmarked) [Example 162] |  |  |  | ≥ 90% | < 0.01 µM | 
10 | O=C1CCC(N2Cc3cc(N4CC(CN5CCC(N6Cc7cc(NC(=O)c8cnn9cccnc89)c(N8CCOCC8)cc7C6=O)CC5)C4)ccc3C2=O)C(=O)N1 (centres unmarked) [Example 34] |  |  |  |  | ≥ 0.1 µM | 
11 | COc1cc2nn([C@H]3CCN(CC4CCN(c5ccc6c(c5)C(=O)N(C5CCC(=O)NC5=O)C6=O)CC4)C[C@@H]3F)cc2cc1NC(=O)c1cnn2cccnc12 (some centres unmarked) [Example 208] |  |  |  | ≥ 90% | 0.01 to 0.05 µM | 
12 | O=C1CCC(N2C(=O)c3ccc(N4CC(CN5CCC(N6Cc7cc(NC(=O)c8cnn9cccnc89)c(N8CCOCC8)nc7C6=O)CC5)C4)cc3C2=O)C(=O)N1 (centres unmarked) [Example 406] |  |  |  | < 70% | 0.05 to 0.1 µM | 
13 | Cc1cnc2c(C(=O)Nc3cc4cn(C5CCN(CC6CCN(c7ccc8c(c7)C(=O)N(C7CCC(=O)NC7=O)C8=O)CC6)CC5)nc4cc3OCC3CC3)cnn2c1 (centres unmarked) [Example 130] |  |  |  | ≥ 90% | 0.05 to 0.1 µM | 
14 | COc1cc2nn(C3CN(CC4CCN(c5ccc6c(c5)C(=O)N(C5CCC(=O)NC5=O)C6=O)CC4)C3)cc2cc1NC(=O)c1cnn2cccnc12 (centres unmarked) [Example 146] |  |  |  |  | ≥ 0.1 µM | 

More lines, main results first:

Row | DC50 (IRAK-4 [1]) | Dmax (IRAK-4 [1]) | PBMC DC90 (IRAK-4 [1]) | Dmax (IRAK-4 [2]) | DC50 (IRAK-4 [2]) | SMILES | also measured
15 | < 0.001 µM | 80 to 90% | A (A represents a DC90 value <10.0 nM) |  |  | CC(C)Oc1cc2c(cc1NC(=O)c1cnn3cccnc13)CN(C1CCC(N(C)C3CN(c4ccc5c(c4)CN(C4CCC(=O)NC4=O)C5=O)C3)CC1)C2=O (centres unmarked) [Example 314] | IC50 (IL8; read-out: IL1β stim IL8 inhibition IC50): 0.01 to 0.05 µM; Emax (IL8; read-out: IL1β stim IL8 inhibition Ymax): 70 to 80%; IC50 (IL6 [3]; Homo sapiens, PBMC, 24 h): < 0.01 µM; Emax (IL6 [3]; PBMC): ≥ 90%
16 | < 0.001 µM | ≥ 90% | A (A represents a DC90 value <10.0 nM) | ≥ 90% | < 0.01 µM | CC(C)Oc1cc2c(cc1NC(=O)c1cnn3cccnc13)CN(C1CCN(C(C)(C)C3CCN(c4ccc5c(c4)C(=O)N(C4CCC(=O)NC4=O)C5=O)CC3)CC1)C2=O (centres unmarked) [Example 82] | Dmax (IL6 [4]): ≥ 90%; IC50 (IL6 [4]): 0.01 to 0.05 µM; Dmax (IL6 [5]): 70 to 80%; IC50 (IL6 [5]): 0.01 to 0.05 µM
17 | < 0.001 µM | ≥ 90% | A (A represents a DC90 value <10.0 nM) | ≥ 90% | 0.01 to 0.05 µM | CC(C)Oc1cc2c(cc1NC(=O)c1cnn3cccnc13)CN(C1CCN(CC3(F)CN(c4ccc5c(c4)C(=O)N(C4CCC(=O)NC4=O)C5=O)C3)CC1)C2=O (centres unmarked) [Example 57, N-(2-(1-((1-(2-(2,6-dioxopiperidin-3-yl)-1,3-dioxoisoindolin-5-yl)-3-fluoroazetidin-3-yl)methyl)piperidin-4-yl)-6-isopropoxy-1-oxoisoindolin-5-yl)pyrazolo[1,5-a]pyrimidine-3-carboxamide] | Dmax (IL6 [4]): ≥ 90%; IC50 (IL6 [4]): 0.05 to 0.1 µM; Dmax (IL6 [5]): 70 to 80%; IC50 (IL6 [5]): 0.01 to 0.05 µM
18 | 0.005 to 0.01 µM | 70 to 80% | D (D represents a DC90 value ≥50 nM) | ≥ 90% | 0.01 to 0.05 µM | O=C1CCC(N2C(=O)c3ccc(N4CC(CN5CCC(N6Cc7cc(NC(=O)c8cnn9cccnc89)c(N8CCC(N9CCC9)CC8)cc7C6=O)CC5)C4)cc3C2=O)C(=O)N1 (centres unmarked) [Example 98] | 
19 |  |  |  | ≥ 90% | 0.01 to 0.05 µM | O=C1CCC(N2C(=O)c3ccc(N4CCC(CN5CCC(n6cc7cc(NC(=O)c8cnn9cc(Cl)cnc89)c(OCC8CC8)cc7n6)CC5)CC4)cc3C2=O)C(=O)N1 (centres unmarked) [Example 128] | Dmax (IL6 [4]): 80 to 90%; IC50 (IL6 [4]): 0.01 to 0.05 µM; Dmax (IL6 [5]): 70 to 80%; IC50 (IL6 [5]): 0.01 to 0.05 µM
20 | < 0.001 µM | ≥ 90% | A (A represents a DC90 value <10.0 nM) | 80 to 90% | 0.05 to 0.1 µM | O=C1CCC(N2C(=O)c3ccc(N4CCC(F)(CN5CCC(N6Cc7cc(NC(=O)c8cnn9cccnc89)c(OCC8CC8)cc7C6=O)CC5)CC4)cc3C2=O)C(=O)N1 (centres unmarked) [Example 88] | Dmax (IL6 [5]): 70 to 80%; IC50 (IL6 [5]): 0.01 to 0.05 µM
21 |  |  |  | 70 to 80% | 0.05 to 0.1 µM | CC(C)(O)c1cc2nn(C3CCN(CC4CN(c5ccc6c(c5)C(=O)N(C5CCC(=O)NC5=O)C6=O)C4)CC3)cc2cc1NC(=O)c1cnn2cccnc12 (centres unmarked) [Example 392] | 
22 |  |  |  |  | ≥ 0.1 µM | COc1cc2nn(C3CCN(CCc4ccc5c(c4)C(=O)N(C4CCC(=O)NC4=O)C5=O)CC3)cc2cc1NC(=O)c1cnn2cccnc12 (centres unmarked) [Example 144] | 
